This passage reports speed of sound results from the NIST ThermoML archive (doi:10.1016/j.jct.2016.01.028).

The conditions of the data set: 102 kPa, Liquid, Frequency=5 MHz, Single path-length method.

Numbers after ± are expanded uncertainties.

As usually defined, the speed of sound is the propagation velocity of pressure waves in the medium. Regarding `CCCCC(=O)[O-].C[NH2+]CCO` [2-hydroxy-N-methylethanaminium pentanoate], the speed of sound (293.15 K) is 1537 ± 2.6 m/s; the speed of sound (298.15 K) is on record as 1516.3 ± 2.6 m/s; the speed of sound (303.15 K) amounted to 1503.7 ± 2.6 m/s; the speed of sound (308.15 K) worked out at 1486.5 ± 2.6 m/s; the speed of sound (313.15 K) was found to be 1471 ± 2.6 m/s; the speed of sound (318.15 K) stood at 1457 ± 2.6 m/s. Besides, the speed of sound reads like this: (323.15 K) 1440 ± 2.6 m/s; (328.15 K) 1424.6 ± 2.6 m/s; (333.15 K) 1412.8 ± 2.6 m/s; (338.15 K) 1397.1 ± 2.6 m/s; (343.15 K) 1381.9 ± 2.6 m/s.

`CCCC(=O)[O-].C[NH2+]CCO` [N-methyl-2-hydroxyethylammonium butanoate]: the speed of sound stood at 1576.8 ± 2.6 m/s (293.15 K); 1562.9 ± 2.6 m/s (298.15 K); 1548 ± 2.6 m/s (303.15 K); 1529.7 ± 2.6 m/s (308.15 K); 1511.9 ± 2.6 m/s (313.15 K); 1499.4 ± 2.6 m/s (318.15 K). Besides, the speed of sound (323.15 K) is listed as 1481.3 ± 2.6 m/s; the speed of sound (328.15 K) turned out to be 1467.2 ± 2.6 m/s; the speed of sound (333.15 K) is reported as 1451.2 ± 2.6 m/s; the speed of sound (338.15 K) is recorded as 1436.7 ± 2.6 m/s; the speed of sound (343.15 K) worked out at 1419.4 ± 2.6 m/s.
